Laboratory results: PubChem BioAssay (NCI)
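Dose response: 5 concentrations. Exposure: 48 h. Format: 96-well plates. Endpoint: linear interpolation; highest concentration if not reached. TGI denotes the concentration required for complete inhibition of growth.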 Where a SMILES comes first, the peptide text is derived from it. [ ]: non-standard residue; d: D form. The star is where a group is joined. ξ: configuration not given here. NMeF = CN[C@@H](Cc1ccccc1)C(=O)O; ξNMeV = CNC(C(=O)O)C(C)C; Boc = CC(C)(C)OC(=O)*; OBn = c1ccc(CO*)cc1

Experiments:
Assay in all cases: DTP human tumour cell line panel, 48 h
DMS 114 small cell lung = tested on: DMS 114 small cell lung
DMS 273 small cell lung = tested on: DMS 273 small cell lung
HOP-18 NSCLC = tested on: HOP-18 NSCLC
KM12 colon = tested on: KM12 colon
KM20L2 colon = tested on: KM20L2 colon
M19-MEL melanoma = tested on: M19-MEL melanoma
OVCAR-5 ovarian = tested on: OVCAR-5 ovarian
RXF 393 renal = tested on: RXF 393 renal
SK-MEL-28 melanoma = tested on: SK-MEL-28 melanoma
SK-OV-3 ovarian = tested on: SK-OV-3 ovarian
SNB-75 CNS = tested on: SNB-75 CNS
SNB-78 CNS = tested on: SNB-78 CNS

Measured: TGI

CC(C)C(C(=O)N1CCC[C@@H]1C(=O)OCc1ccccc1)N(C)C(=O)C(C(C)C)N(C)C(=O)[C@H](Cc1ccccc1)N(C)C(=O)[C@H](NC(=O)OC(C)(C)C)C(C)C (stereo not given in full) (Boc-[dV][NMeF][ξNMeV][ξNMeV][dP]-OBn)
> 100 µM: DMS 114 small cell lung | DMS 273 small cell lung | HOP-18 NSCLC | KM12 colon | KM20L2 colon | M19-MEL melanoma | OVCAR-5 ovarian | RXF 393 renal | SK-MEL-28 melanoma | SK-OV-3 ovarian | SNB-75 CNS | SNB-78 CNS

CC12CC[C@H](O)C(C)(C)[C@H]1CC[C@](C)(O)C2COc1ccc2ccc(=O)oc2c1 (stereo not given in full)
> 100 µM: DMS 114 small cell lung | DMS 273 small cell lung | HOP-18 NSCLC | KM12 colon | KM20L2 colon | M19-MEL melanoma | RXF 393 renal | SK-MEL-28 melanoma | SK-OV-3 ovarian | SNB-75 CNS | SNB-78 CNS

COc1ccc(C2ON(c3ccccn3)CC=C2C)cc1 (stereo not given)
> 100 µM: DMS 114 small cell lung | DMS 273 small cell lung | HOP-18 NSCLC | KM12 colon | KM20L2 colon | M19-MEL melanoma | OVCAR-5 ovarian | RXF 393 renal | SK-MEL-28 melanoma | SK-OV-3 ovarian | SNB-75 CNS | SNB-78 CNS
